Test results reported in patent US20260078099A1, “COMPOUND, PREPARATION METHOD THEREOF, AND LIPID NANOPARTICLE AND PHARMACEUTICAL COMPOSITION” (priority 2023, published 2026).

Key:
[1] = LNP zeta potential; type: physicochemical; details: mRNA LNP
Text: Nanoparticle compositions can be characterized by various methods. For example, the morphology and size distribution of nanoparticle compositions can be examined using microscopy (e.g., transmission electron microscopy or scanning electron microscopy). The zeta potential can be measured using dynamic light scattering or potentiometric titration. Dynamic light scattering can also be used to determine particle size. Instruments such as the Zetasizer Nano ZS (Malvern Instruments Ltd., Malvern, Worcestershire, UK) can also be used to measure multiple characteristics of nanoparticle compositions, such as particle size, polydispersity index, and zeta potential.
[…]: The zeta potential of the nanoparticle composition can indicate the electrophoretic potential of the composition. For example, zeta potential may describe the surface charge of the nanoparticle composition. Nanoparticle compositions with relatively low positive or negative charges are generally desirable, as materials with higher charges may interact undesirably with cells, tissues, and other components in the body. In some embodiments, the zeta potential of the nanoparticle composition may be about −10 mV to about +20 mV, about −10 mV to about +15 mV, about −10 mV to about +10 mV, about −10 mV to about +5 mV, about −10 mV to about 0 mV, about −10 mV to about −5 mV, about −5 mV to about +20 mV, about −5 mV to about +15 mV, about −5 mV to about +10 mV, about −5 mV to about +5 mV, about −5 mV to about 0 mV, about 0 mV to about +20 mV, about 0 mV to about +15 mV, about 0 mV to about +10 mV, about 0 mV to about +5 mV, about +5 mV to about +20 mV, about +5 mV to about +15 mV, or about +5 mV to about +10 mV.

[2] = LNP encapsulation efficiency (Quant-it Ribogreen); type: physicochemical; details: mRNA LNP, cationic lipid/DSPC/cholesterol/PEG-lipid 50:10:38.5:1.5
Text: Encapsulation Efficiency: The encapsulation efficiency of a therapeutic and/or prophylactic agent refers to the amount of the therapeutic and/or prophylactic agent encapsulated within or otherwise associated with the nanoparticle composition relative to the initial amount provided during preparation. Encapsulation efficiency is desirably high (such as close to 100%). Encapsulation efficiency can be measured, for example, by comparing the amount of therapeutic and/or prophylactic agent in a solution containing the nanoparticle composition before and after disruption of the nanoparticle composition using one or more organic solvents or detergents. Fluorescence can be used to measure the amount of free therapeutic and/or prophylactic agent (e.g., RNA) in solution. For the nanoparticle compositions described herein, the encapsulation efficiency of the therapeutic and/or prophylactic agent may be at least 50%, such as 50%, 55%, 60%, 65%, 70%, 75%, 80%, 85%, 90%, 91%, 92%, 93%, 94%, 95%, 96%, 97%, 98%, 99%, or 100%. In some embodiments, the encapsulation efficiency may be at least 80%. In certain embodiments, the encapsulation efficiency may be at least 90%.
(§1) In summary, the cationic lipid described herein, DSPC, cholesterol, and PEG-lipid were dissolved in ethanol at a molar ratio of 50:10:38.5:1.5 and diluted in 10 mM to 50 mM citrate buffer at pH 4 with mRNA. Using a microfluidic device, the lipid ethanol solution was mixed with mRNA aqueous solution at a volume ratio of 1:3 and a total flow rate ranging from 6-30 mL/min, preparing LNPs with a total lipid to mRNA weight ratio of approximately 10:1 to 30:1. Ethanol was removed by dialysis and replaced with PBS. Finally, the lipid nanoparticles were filtered through a 0.22 μm sterile filter.
(§2) The size of lipid nanoparticles was measured by dynamic light scattering using a Malvern Zetasizer Nano ZS (Malvern, UK) with a 90° scattering detection mode. The encapsulation efficiency of lipid nanoparticles was determined using the Quant-it Ribogreen RNA Quantitation Kit (Thermo Fisher Scientific, UK) according to the manufacturer's instructions. The apparent pKa of LNP formulations correlates with the delivery efficiency of nucleic acids by LNPs in vivo. The apparent pKa ranges from approximately 5 to 7. An analysis based on fluorescence from 2-(p-tolylamino)-6-naphthalenesulfonic acid (TNS) was used to determine the apparent pKa of formulations. As described above, LNP formulations containing cationic lipid/DSPC/cholesterol/DMG-PEG (50/10/38.5/1.5 mol %) in PBS were prepared. A 300 μM stock solution of TNS in distilled water was prepared. LNP formulations were diluted to 0.1 mg/mL total lipid in 3 mL of buffer solution containing 50 mM sodium citrate, 50 mM sodium phosphate, 50 mM sodium borate, and 30 mM sodium chloride (pH ranged from 3 to 9). […] S-shaped curve best-fit analysis was applied to the fluorescence data, and the pKa value was measured as the pH value producing half-maximal fluorescence intensity.

[3] = LNP size and PDI by dynamic light scattering; type: physicochemical; details: mRNA LNP, cationic lipid/DSPC/cholesterol/PEG-lipid 50:10:38.5:1.5
Procedure: as §1, §2

[4] = tested on: mice; assay: Bioluminescent study, intramuscular injection of F-luc mRNA LNPs; type: in vivo; details: F-luc luminescence flux normalized to MC3; 0.25 mg/kg intramuscular, mice n=3, 6-hour time point
Procedure: The efficacy of nanoparticle compositions was evaluated using bioluminescent studies. A dose of 0.25 mg/kg (mpk) of the formulation was administered to mice (n=3) via intramuscular injection, and bioluminescence was measured at a 6-hour time point. The test lipid nanoparticles from the MC3 formulation were evaluated, and in some cases, controls (e.g., PBS controls) were assessed for comparison.
The characteristics of the test lipid nanoparticles measured from the test groups, including F-luc luminescence intensity, are listed in the table below.

CCCCCCCCC(CCCCCC)C(=O)OCCCCCCN(CCCCO)CCCCCCOC(=O)C(CCCCCC)CCCCCCCC (stereo not shown) [ALC-0315]
Zeta potential (mV) [1]: −0.76 mV
Encapsulation efficiency (%) [2]: 93.27%
PDI [3]: 0.082
Size (nm) [3]: 70.12 nm
Relative Total flux [4]: A (A: ≥2)

CCCCCCCCC(C(=O)NCCCCCCCCCC(=O)OC(CCCCCC)CCCCCC)N(CCCN1CCCC1)C(=O)CCCCCCCCCC(=O)OC(CCCCCC)CCCCCC (stereo not shown) [Compound A1]
Zeta potential (mV) [1]: −12.25 mV
Encapsulation efficiency (%) [2]: 67.41%
PDI [3]: 0.135
Size (nm) [3]: 82.96 nm
Relative Total flux [4]: B (B: ≥1 and <2)

CCCCCCCC(C(=O)NCCCCCCCCCC(=O)OC(CCCCCC)CCCCCC)N(CCCN1CCCC1)C(=O)CCCCCCCCCC(=O)OC(CCCCCC)CCCCCC (stereo not shown) [Compound A2]
Zeta potential (mV) [1]: −2.69 mV
Encapsulation efficiency (%) [2]: 50.77%
PDI [3]: 0.153
Size (nm) [3]: 78.3 nm
Relative Total flux [4]: C (C: ≥0.1 and <1)

CCCCCCCCC(C(=O)NCCCCCCCCCC(=O)OC(CCCC)CCCCCC)N(CCCN1CCCC1)C(=O)CCCCCCCCCC(=O)OC(CCCC)CCCCCC (stereo not shown) [Compound A3]
Relative Total flux [4]: C (C: ≥0.1 and <1)

CCCCCCCCC(CCCCCC)COC(=O)CCCCCCCCCNC(=O)C(CCCCCCCC)N(CCCN1CCCC1)C(=O)CCCCCCCCCC(=O)OCC(CCCCCC)CCCCCCCC (stereo not shown) [Compound A4]
Zeta potential (mV) [1]: 5.65 mV
Encapsulation efficiency (%) [2]: 97.34%
PDI [3]: 0.202
Size (nm) [3]: 72.85 nm
Relative Total flux [4]: D (D: <0.1.)

CCCCCCCCC(C(=O)NCCCCCCCCCC(=O)OCCCCCC)N(CCCN1CCCC1)C(=O)CCCCCCCCCC(=O)OC(CCCCCC)CCCCCC (stereo not shown) [Compound A5]
Zeta potential (mV) [1]: −17.73 mV
Encapsulation efficiency (%) [2]: 92.48%
PDI [3]: 0.13
Size (nm) [3]: 60.62 nm
Relative Total flux [4]: D (D: <0.1.)

CCCCCCCCC(C(=O)NCCCCCCCCCC(=O)OCCCCCC)N(CCCN1CCCC1)C(=O)CCCCCCCCCC(=O)OCCCCCC (stereo not shown) [Compound A6]
Zeta potential (mV) [1]: −9.54 mV
Encapsulation efficiency (%) [2]: 84.80%
PDI [3]: 0.234
Size (nm) [3]: 55.75 nm
Relative Total flux [4]: A (A: ≥2)

CCCCCCCC(C(=O)NCCCCCCCCCC(=O)OC(CCCCCC)CCCCCC)N(CCCN1CCCC1)C(=O)CCCCCCCCCC(=O)OCC12CC3CC(CC(C3)C1)C2 (stereo not shown) [Compound A7]
Zeta potential (mV) [1]: 4.99 mV
Encapsulation efficiency (%) [2]: 96.10%
PDI [3]: 0.274
Size (nm) [3]: 62.53 nm
Relative Total flux [4]: C (C: ≥0.1 and <1)

CCCCC/C=C\C/C=C\CCCCCCCC(=O)N(CCCN1CCCC1)C(CCCCCCCCCCC)C(=O)NCCCCCCCCCCCCCC (stereo not shown) [Compound A22]
Relative Total flux [4]: C (C: ≥0.1 and <1)

CCCCC/C=C\C/C=C\CCCCCCCC(=O)N(CCCCN1CCCC1)C(CCCCCCCCCCC)C(=O)NCCCCCCCCCCCCCC (stereo not shown) [Compound A24]
Relative Total flux [4]: C (C: ≥0.1 and <1)

CCCCCCCCCCCCCCNC(=O)C(CCCCCCCCCCC)N(CCCCN1CCCC1)C(=O)CCCCCCC(=O)OC(CCCCCCCC)CCCCCCCC (stereo not shown) [Compound A25]
Relative Total flux [4]: D (D: <0.1.)

CCCCCCCCNC(=O)C(CCCCCCCC)N(CCCCN1CCCC1)C(=O)CCCCCCC(=O)OC(CCCCCCCC)CCCCCCCC (stereo not shown) [Compound A37]
Relative Total flux [4]: B (B: ≥1 and <2)

CCCCCCCCNC(=O)C(CCCCCCCC)N(CCN(CC)CC)C(=O)CCCCCCC(=O)OC(CCCCCCCC)CCCCCCCC (stereo not shown) [Compound A38]
Relative Total flux [4]: A (A: ≥2)

CCCCCCCCNC(=O)C(CCCCCCCC)N(CC1CCCN(C)C1)C(=O)CCCCCCC(=O)OC(CCCCCCCC)CCCCCCCC (stereo not shown) [Compound A39]
Relative Total flux [4]: A (A: ≥2)

CCCCCCCCC(CCCCCC)COC(=O)CCCCCNC(=O)C(CCCCC)N(CCCN(C)C)C(=O)CCCCCC(=O)OCC(CCCCCCCC)CCCCCCCC (stereo not shown) [Compound A43]
Relative Total flux [4]: A (A: ≥2)

CCCCCCCCC(CCCCCC)COC(=O)CCCCCNC(=O)C(CCCCC)N(CCCCN(C)C)C(=O)CCCCCC(=O)OCC(CCCCCC)CCCCCCCC (stereo not shown) [Compound A44]
Relative Total flux [4]: B (B: ≥1 and <2)

CCCCCCCCC(CCCCCCCC)OC(=O)CCCCCCC(=O)N(CCCN(C)C)C(CCCCCCCC)C(=O)NCCCCCC(=O)OCCC12CC3CC(CC(C3)C1)C2 (stereo not shown) [Compound A47]
Relative Total flux [4]: A (A: ≥2)

CCCCCCCCC(C(=O)NCCCCCCCCCC(=O)OCCCCCC)N(CCCN(CO)CO)C(=O)CCCCCCCCCC(=O)OC(CCCCCC)CCCCCC (stereo not shown) [Compound B1]
Relative Total flux [4]: A (A: ≥2)

CCCCCCCC(C(=O)NCCCCCCCCCC(=O)OC(CCCCCC)CCCCCC)N(CCN(C)CCO)C(=O)CCCCCCCCCC(=O)OC(CCCCCC)CCCCCC (stereo not shown) [Compound B9]
Relative Total flux [4]: A (A: ≥2)

CCCCCCCCNC(=O)C(CCCCCCCC)N(CCCN(C)CCCO)C(=O)CCCCCCC(=O)OC(CCCCCCCC)CCCCCCCC (stereo not shown) [Compound B27]
Relative Total flux [4]: B (B: ≥1 and <2)

CCCCCCCCNC(=O)C(CCCCCCCC)N(CCCN(CC)CCO)C(=O)CCCCCCC(=O)OC(CCCCCCCC)CCCCCCCC (stereo not shown) [Compound B28]
Relative Total flux [4]: A (A: ≥2)

CCCCC/C=C\C/C=C\CCCCCCCCNC(=O)C(CCCCCCCC)N(CCCCCCCC/C=C\C/C=C\CCCCC)C(=O)CCCN(C)C (stereo not shown) [Compound C2]
Relative Total flux [4]: B (B: ≥1 and <2)

CCCCC/C=C\C/C=C\CCCCCCCCNC(=O)C(CCCCCCCC)N(CCCCCCCC/C=C\C/C=C\CCCCC)C(=O)CCCN1CCCC1 (stereo not shown) [Compound C4]
Relative Total flux [4]: B (B: ≥1 and <2)

CCCCC/C=C\C/C=C\CCCCCCCCNC(=O)C(CCCCCCCC)N(CCCCCCCC/C=C\C/C=C\CCCCC)C(=O)CCCN(C)CCO (stereo not shown) [Compound C6]
Relative Total flux [4]: D (D: <0.1.)

CCCCC/C=C\C/C=C\CCCCCCCCNC(=O)C(CCCCCCCC)N(CCCCCCCC/C=C\C/C=C\CCCCC)C(=O)CCCN(CCO)CCO (stereo not shown) [Compound C7]
Relative Total flux [4]: D (D: <0.1.)

CCCCCCCCC(C(=O)NCCCCCCCCCC(=O)OC(CCCCCC)CCCCCC)N(CCCCN1CCN(CCCN(C(=O)CCCCCCCCCC(=O)OC(CCCCCC)CCCCCC)C(CCCCCCCC)C(=O)NCCCCCCCCCC(=O)OC(CCCCCC)CCCCCC)CC1)C(=O)CCCCCCCCCOC(=O)C(CCCCCC)CCCCCC (stereo not shown) [Compound D3]
Relative Total flux [4]: C (C: ≥0.1 and <1)

CCCCCCCCC(C(=O)NCCCCCCCCCC(=O)OC(CCCCCC)CCCCCC)N(CCN(C)CCN(C(=O)CCCCCCCCCC(=O)OC(CCCCCC)CCCCCC)C(CCCCCCCC)C(=O)NCCCCCCCCCC(=O)OC(CCCCCC)CCCCCC)C(=O)CCCCCCCCCC(=O)OC(CCCCCC)CCCCCC (stereo not shown) [Compound D6]
Relative Total flux [4]: A (A: ≥2)
